According to patent publication US10584120B1, “Benzimidazole compounds and use thereof for treating Alzheimer's Disease or Huntington's Disease” (National Health Research Institutes, priority 2018, dated 2020):

Experiments:
in vivo = details: APP/PS1, mouse, po
[1] = tested on: Aβ deposits in brain tissues of APP/PS1 mice; test: In vivo activity in transgenic APP/PS1 mouse model; details: 4-month-old APP/PS1 mice, orally administered for 3.5 months

| Structure (SMILES) | bioavailability (in vivo) [%] | Aβ deposits in brain tissues [1] |
| --- | --- | --- |
| O=C1NCC(c2ccc(-c3csc(C(F)(F)F)c3)c(F)c2F)N1c1ccc2[nH]cnc2c1 (centres unmarked) [Compound 28, 1-(1H-benzimidazol-5-yl)-5-{2,3-difluoro-4-[5-(trifluoromethyl)thiophen-3-yl]phenyl}-imidazolidin-2-one] | 25 |  |
| O=C1NC(=O)N(c2ccc3[nH]cnc3c2)C1c1ccc(-c2nc(C(F)(F)F)cs2)cc1 (centres unmarked) [Compound 37, 1-(1H-benzimidazol-5-yl)-5-{4-[4-(trifluoromethyl)-1,3-thiazol-2-yl]phenyl}imidazolidine-2,4-dione] |  | depletion of Aβ deposits in brain tissues |
